# Measurements reported in US11999739B2, “Antimicrobials methods of making and using the same” (BIOVERSYS AG, priority 2016, dated 2024).
# Tests used:
# [1] = tested on: Escherichia coli strain ATCC25922; test: Standard microdilution MIC assay, E. coli; format: cell-based
# Procedure, shortened: (§1)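 MICs obtained by CLSI-standard microdilution, quality-controlled with reference strains in parallel. Values reported as + or − relative to a 16 micrograms/mL cutoff.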
# [2] = tested on: Staphylococcus aureus (S. aureus) 11540 strain; test: Standard microdilution MIC assay, S. aureus; format: cell-based
# Procedure, shortened: as §1
Structure (SMILES),MIC [1] [µg/mL],MIC [2] [µg/mL]
C=C[C@H](CCNC(=N)CF)NCc1ccc(-n2cc3cc(-c4cc(CCC[C@@H](N)C(F)(F)F)cc(Cl)c4F)[nH]c3nc2=O)cc1 [Compound 44],> 16,≤ 16
CC(=N)NCC[C@@H]1CCC[C@@H](c2ccc(-n3cc4cc(-c5cc(CCC[C@@H](N)C6CC6)cc(Cl)c5F)[nH]c4nc3=O)cc2S(C)(=O)=O)N1 [Compound 273],≤ 16,≤ 16
CC(=N)NCC[C@H](CO)N[C@@H](C)c1ccc(-n2cc3cc(-c4cc(CCC[C@H](C)N)cc(Cl)c4F)[nH]c3nc2=O)cc1 [Compound 96],≤ 16,≤ 16
CC(=N)NCC[C@@H]1CCC[C@@H](c2c(F)cc(-n3cc4cc(-c5cc(CCC[C@@H](N)CO)cc(Cl)c5F)[nH]c4nc3=O)cc2F)N1 [Compound 281],≤ 16,≤ 16
C[C@H](N)CCCc1cc(Cl)c(F)c(-c2cc3cn(-c4ccc([C@H](C)N[C@@H](CO)CCNC(=N)CF)cc4)c(=O)nc3[nH]2)c1 [Compound 97],≤ 16,≤ 16
CC(=N)NCC[C@@H]1CCC[C@@H](c2ccc(-n3cc4cc(-c5cc(CCC[C@H](C)N)cc(Cl)c5F)[nH]c4nc3=O)cc2)N1CCn1ccnc1C [Compound 263],≤ 16,≤ 16
CC(C)(CN)CCc1cc(Cl)c(F)c(-c2cc3cn(-c4ccc([C@@H]5CCC[C@@H](CCNC(=N)CF)N5)cc4)c(=O)nc3[nH]2)c1 [Compound 25],≤ 16,≤ 16
C=C[C@H](N)CCCc1cc(-c2cc3cn(-c4ccc([C@@H]5CCC[C@@H](CCNC(C)=N)N5CCCF)c(F)c4)c(=O)nc3[nH]2)cc(C(F)(F)F)c1 [Compound 349],≤ 16,≤ 16
COC[C@@H](CCNC(C)=N)NCc1ccc(-n2cc3cc(-c4cc(CCC[C@H](C)N)cc(Cl)c4F)[nH]c3nc2=O)cc1 [Compound 189],≤ 16,≤ 16
CC(=N)NCC[C@@H]1CCC[C@@H](c2ccc(-n3cc4cc(-c5cc(CCC[C@@H](N)C6CC6)cc(C(F)(F)F)c5F)[nH]c4nc3=O)cc2F)N1 [Compound 228],≤ 16,≤ 16
C=C[C@@H](N)CCCc1cc(Cl)c(F)c(-c2cc3cn(-c4ccc([C@@H]5CCC[C@@H](C[C@@H](C)NC(C)=N)N5)cc4)c(=O)nc3[nH]2)c1 [Compound 340],≤ 16,≤ 16
CSc1cc(-n2cc3cc(-c4cc(CCC[C@H](C)N)cc(Cl)c4F)[nH]c3nc2=O)ccc1[C@@H]1CCC[C@@H](CCNC(C)=N)N1 [Compound 115],≤ 16,≤ 16
C=C[C@@H](CCNC(C)=N)NCc1ccc(-n2cc3cc(-c4cc(CCCC5(N)CC5)cc(Cl)c4F)[nH]c3nc2=O)cc1 [Compound 146],≤ 16,≤ 16
CC(=N)NCC[C@@H]1CCC[C@@H](c2ccc(-n3cc4cc(-c5cc(CCC[C@H](N)C(F)F)cc(Cl)c5F)[nH]c4nc3=O)cc2)N1 [Compound 141],≤ 16,≤ 16
CC(=N)NCCCNC1(c2ccc(-n3cc4cc(-c5cc(CCC[C@@H](N)CO)cc(Cl)c5F)[nH]c4nc3=O)cc2)CC1 [Compound 138],≤ 16,≤ 16
CC(=N)NCC[C@@H]1CCC[C@@H](c2ccc(-n3cc4cc(-c5cc(CCC[C@H](C)N)cc(Cl)c5F)[nH]c4nc3=O)cc2F)N1CCCF [Compound 325],≤ 16,≤ 16
COC[C@H](N)CCCc1cc(Cl)c(F)c(-c2cc3cn(-c4ccc([C@@H]5CCC[C@@H](CCNC(C)=N)N5)cc4)c(=O)nc3[nH]2)c1 [Compound 160],≤ 16,≤ 16
CN=C(C)NCC[C@@H]1CCC[C@@H](c2ccc(-n3cc4cc(-c5cc(CCC[C@H](C)N)cc(Cl)c5F)[nH]c4nc3=O)cc2)N1 [Compound 283],≤ 16,≤ 16
C=C[C@@H](N)CCCc1cc(Cl)c(F)c(-c2cc3cn(-c4ccc([C@H](C)N[C@@H](C=C)CCNC(C)=N)cc4)c(=O)nc3[nH]2)c1 [Compound 149],≤ 16,≤ 16
CC(=N)NCCCNC1(c2ccc(-n3cc4cc(-c5cc(CCC[C@H](C)N)cc(Cl)c5F)[nH]c4nc3=O)cc2)CC1 [Compound 145],≤ 16,≤ 16
CCCC(=N)NCC[C@@H]1CCC[C@@H](c2ccc(-n3cc4cc(-c5cc(CCC[C@H](C)N)cc(Cl)c5F)[nH]c4nc3=O)cc2SC)N1 [Compound 353],≤ 16,≤ 16
CC(=N)NCC[C@@H]1CNC[C@H](c2ccc(-n3cc4cc(-c5cc(CCC[C@H](C)N)cc(Cl)c5F)[nH]c4nc3=O)cc2)N1 [Compound 45],≤ 16,≤ 16

# Next, values leading:
MIC [1] [µg/mL],MIC [2] [µg/mL],Structure (SMILES)
≤ 16,≤ 16,C[C@H](N)CCCc1cc(Cl)c(F)c(-c2cc3cn(-c4ccc([C@H]5CNC[C@@H](CCNC(=N)CF)N5)cc4)c(=O)nc3[nH]2)c1 [Compound 46]
≤ 16,≤ 16,CSc1cc(-n2cc3cc(-c4cc(CCC[C@@H](N)C5CC5)cc(C(F)(F)F)c4)[nH]c3nc2=O)cc(F)c1[C@@H]1CCC[C@@H](CCNC(C)=N)N1 [Compound 286]
≤ 16,≤ 16,CC(=N)NCC[C@@H]1CCC[C@@H](c2ccc(-n3cc4cc(-c5cc(CCC[C@@H](N)CF)cc(Cl)c5F)[nH]c4nc3=O)cc2F)N1 [Compound 170]
≤ 16,≤ 16,CSCC(=N)NCC[C@@H]1CCC[C@@H](c2ccc(-n3cc4cc(-c5cc(CCC[C@H](C)N)cc(Cl)c5F)[nH]c4nc3=O)cc2)N1 [Compound 42]
≤ 16,≤ 16,C=CC(CCNC(=N)CF)NCc1ccc(-n2cc3cc(-c4cc(CCC(C)(C)CN)cc(Cl)c4F)[nH]c3nc2=O)cc1 (stereo not drawn) [Compound 27]
≤ 16,≤ 16,C=C[C@@H](N)CCCc1cc(Cl)c(F)c(-c2cc3cn(-c4ccc([C@H](C)NCCCNC(C)=N)c(F)c4)c(=O)nc3[nH]2)c1 [Compound 92]
≤ 16,≤ 16,C=C[C@@H](CCNC(C)=N)NCc1ccc(-n2cc3cc(-c4cc(CCC[C@H](N)C(F)F)cc(Cl)c4F)[nH]c3nc2=O)cc1 [Compound 142]
≤ 16,≤ 16,C=C[C@@H](N)CCCc1cc(Cl)c(F)c(-c2cc3cn(-c4ccc(CN[C@H](C=C)CCNC(C)=N)cc4)c(=O)nc3[nH]2)c1 [Compound 31]
≤ 16,≤ 16,C=C[C@@H](CCNC(=N)CF)NCc1ccc(-n2cc3cc(-c4cc(CCC[C@@H](N)CO)cc(Cl)c4F)[nH]c3nc2=O)cc1 [Compound 2]
≤ 16,≤ 16,C=C[C@@H](CCNC(=N)CF)NCc1ccc(-n2cc3cc(-c4cc(CCC[C@@H](N)C5CC5)cc(Cl)c4F)[nH]c3nc2=O)cc1 [Compound 89]
≤ 16,≤ 16,CC(=N)NCC[C@@H]1CCC[C@@H](c2ccc(-n3cc4cc(-c5cc(CCC[C@@H]6COCCN6)cc(Cl)c5F)[nH]c4nc3=O)cc2F)N1 [Compound 245]
≤ 16,≤ 16,COCCN1[C@H](CCNC(C)=N)CCC[C@H]1c1ccc(-n2cc3cc(-c4cc(CCC[C@H](C)N)cc(Cl)c4F)[nH]c3nc2=O)cc1 [Compound 277]
≤ 16,≤ 16,CC(=N)NCC[C@@H](NCc1ccc(-n2cc3cc(-c4cc(CCC[C@@H](N)C5CC5)cc(Cl)c4F)[nH]c3nc2=O)cc1)C1CC1 [Compound 219]
≤ 16,≤ 16,CC(=N)NCC[C@@H]1COC[C@@H](c2ccc(-n3cc4cc(-c5cc(CCC[C@H](C)N)cc(Cl)c5F)[nH]c4nc3=O)cc2)N1 [Compound 47]
